Test results reported in patent US20230131808A1, “PEGYLATED INTERFERON TAU AND COMPOSITIONS AND METHODS THEREOF” (priority 2020, published 2023).

Legend:
[1] = Cytotoxicity in Huh7 cells without virus infection (CellTiter Glo); conditions: human
[2] = tested on: Huh7 cells; assay: as above
[3] = tested on: Human Coronavirus 229E (hCoV-229E); assay: microbe, parasite or virus in culture; assay type: cell-based
[4] = tested on: hCoV-OC43; assay: HCoV OC43 CPE assay in Huh7 cells; assay type: cell-based; conditions: Betacoronavirus 1, Huh-7

## CCC(CC)COC(=O)[C@H](C)N[P@](=O)(OC[C@H]1O[C@@](C#N)(c2ccc3c(N)ncnn23)[C@H](O)[C@@H]1O)Oc1ccccc1 [Remdesivir]
[1]
  CC50 at 7 days: 17.2 µM
[2]; 0.046 μM
  Average Viability (%): 99.99%
[2]; 0.137 μM
  Average Viability (%): 101.58%
[2]; 0.412 μM
  Average Viability (%): 104.10%
[2]; 1.235 μM
  Average Viability (%): 102.28%
[2]; 3.704 μM
  Average Viability (%): 86.91%
[2]; 11.11 μM
  Average Viability (%): 56.84%
[2]; 33.33 μM
  Average Viability (%): 36.88%
[2]; 100.00 μM
  Average Viability (%): 21.77%

## NC(=O)c1ncn([C@@H]2O[C@H](CO)[C@@H](O)[C@H]2O)n1 [Ribavirin]
[3]
  IC50: 30 µM

## CCN(CC)CCCC(C)Nc1ccnc2cc(Cl)ccc12 (centres unmarked) [chloroquine phosphate]
[4]
  EC50: 3.12 µM
